Data: publication PMC3968014, “Design and Synthesis of a Library of Lead-Like 2,4-Bisheterocyclic Substituted Thiophenes as Selective Dyrk/Clk Inhibitors” (PLoS ONE, 2014)
Values joined by “and” are separate entries in the source; they are usually repeats but may differ in a detail not shown here. Identical values can stand only once.

Experiments:
[1] = biological target: T1, CK2α (Homo sapiens, UniProt P68400); assay: CK2α kinase assay (counter screen); assay type: biochemical; conditions: for inhibition at 5 µM: read-out: percentage of inhibition CK2α
T1 construct: purchased Life Technologies (Invitrogen SelectScreen); Dyrk1A, Dyrk2 and CK2α in-house or gifts
T1 sequence (P68400 whole entry): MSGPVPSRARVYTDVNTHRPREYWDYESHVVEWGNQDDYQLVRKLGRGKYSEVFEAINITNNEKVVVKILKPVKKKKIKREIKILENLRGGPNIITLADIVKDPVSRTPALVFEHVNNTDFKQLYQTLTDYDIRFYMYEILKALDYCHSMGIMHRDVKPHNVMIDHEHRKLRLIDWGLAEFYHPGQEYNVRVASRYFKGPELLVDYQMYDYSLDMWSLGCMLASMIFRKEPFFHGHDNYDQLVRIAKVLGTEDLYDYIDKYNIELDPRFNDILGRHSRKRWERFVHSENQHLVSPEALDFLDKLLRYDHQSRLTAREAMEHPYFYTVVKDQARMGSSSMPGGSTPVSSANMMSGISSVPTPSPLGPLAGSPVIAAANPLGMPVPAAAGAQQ
Description: Dyrk1A, Dyrk1B, Dyrk2, CK2α and Clk1 kinase reactions were performed in a reaction buffer containing 50 mM Tris/HCl, pH 7.4, 0.1 mM EGTA, 0.5 mM DTT, 10 mM MgCl2, 100 µM ATP and 0.33 µM [γ-^32ATP] as well as the appropriate substrate peptides, which were 100 µM Woodtide for the Dyrk isoforms ([…]-NH2), 60 µM CK2 substrate peptide ([…]-NH2, from Millipore) for CK2α or RS repeat peptide ([…]) for Clk1. The CK2α protein was a kind gift of M. Montenarh (Homburg). The kinase reactions were performed at 30°C for 15 min and terminated by spotting 5 µL of the reaction mixture onto a P81 phosphocellulose membrane (Whatman). The membrane was washed four times with 0.3% phosphoric acid and one time with acetone and dried. The dry membrane was exposed in a cassette to a Phosphor Screen Imaging Plate (FujiFilm) and the signals detected by scanning of the imaging plate in a Fuji FLA-3000 PhosphoImager. The spots were quantified using AIDA software (Raytest, Version 3.52) to determine the activities of the kinases in the assay reactions. […] IC50 values were calculated by fitting the data with Origin Pro 8.6 (OriginLabs). The calculated IC50 values are representative of at least two independent determinations.

[2] = tested on: U2OS osteosarcoma cells; assay: Caspase-3 Assay (Caspase-Glo 3/7); assay type: cell-based; conditions: for caspase-3/7 activity: starved U2OS cells, 48 hours, vs DMSO control
Description: U2OS osteosarcoma cells were seeded in a 96 well flat bottom plate (15*10^3 cells/well). […] The induction of caspase-3/7 activity was measured using the Promega Caspase-Glo 3/7 assay system (Promega, LOT 0000054568). The resulting luciferase reaction signals that are proportional to the caspase induction were measured in a POLARstar plate reader (BMG Labtech, Offenburg, Germany). […] Values obtained for different compound concentrations were compared using the two-sided Student's t test; levels of significance thus obtained are indicated by asterisks.

[3] = biological target: T2, CLK2 (Homo sapiens, UniProt P49760); assay: Selectivity panel CLK2; assay type: biochemical; conditions: 5 µM inhibitor
T2 construct: purchased Life Technologies (Invitrogen SelectScreen); Dyrk1A, Dyrk2 and CK2α in-house or gifts

[4] = biological target: T3, CLK4 (Homo sapiens, UniProt Q9HAZ1); assay: Selectivity panel CLK4; assay type: biochemical; conditions: 5 µM inhibitor
T3 construct: purchased Life Technologies (Invitrogen SelectScreen); Dyrk1A, Dyrk2 and CK2α in-house or gifts

[5] = biological target: T4, HIPK4 (Homo sapiens, UniProt Q8NE63); assay: Selectivity panel HIPK4; assay type: biochemical; conditions: 5 µM inhibitor
T4 construct: purchased Life Technologies (Invitrogen SelectScreen); Dyrk1A, Dyrk2 and CK2α in-house or gifts

[6] = biological target: T5, CDK5 (Homo sapiens, UniProt Q00535); assay: Selectivity panel CDK5; assay type: biochemical; conditions: 5 µM inhibitor
T5 construct: purchased Life Technologies (Invitrogen SelectScreen); Dyrk1A, Dyrk2 and CK2α in-house or gifts
T5 sequence (Q00535 whole entry): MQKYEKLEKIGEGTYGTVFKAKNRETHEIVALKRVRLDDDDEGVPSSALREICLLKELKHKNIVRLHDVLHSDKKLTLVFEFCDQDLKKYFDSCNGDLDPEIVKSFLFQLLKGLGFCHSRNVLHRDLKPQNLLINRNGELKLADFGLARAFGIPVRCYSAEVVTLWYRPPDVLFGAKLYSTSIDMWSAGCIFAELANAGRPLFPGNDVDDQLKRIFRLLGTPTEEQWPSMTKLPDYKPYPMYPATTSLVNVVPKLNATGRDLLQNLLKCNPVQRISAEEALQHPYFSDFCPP
T5 sequence (Q15078 whole entry partner): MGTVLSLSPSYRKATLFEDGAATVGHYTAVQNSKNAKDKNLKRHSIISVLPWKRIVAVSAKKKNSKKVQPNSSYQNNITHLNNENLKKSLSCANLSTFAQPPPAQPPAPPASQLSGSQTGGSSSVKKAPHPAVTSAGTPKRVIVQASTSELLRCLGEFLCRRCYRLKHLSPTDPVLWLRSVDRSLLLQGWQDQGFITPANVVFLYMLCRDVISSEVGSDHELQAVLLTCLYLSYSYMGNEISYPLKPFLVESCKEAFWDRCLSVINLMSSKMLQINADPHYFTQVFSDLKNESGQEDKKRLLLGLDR

[7] = biological target: T6, CDK1/cyclin B (Homo sapiens, UniProt P06493); assay: Selectivity panel CDK1/cyclin B; assay type: biochemical; conditions: 5 µM inhibitor
T6 construct: purchased Life Technologies (Invitrogen SelectScreen); Dyrk1A, Dyrk2 and CK2α in-house or gifts

[8] = biological target: T7, MAPK10 (JNK3) (Homo sapiens, UniProt P53779); assay: Selectivity panel MAPK10; assay type: biochemical; conditions: 5 µM inhibitor
T7 construct: purchased Life Technologies (Invitrogen SelectScreen); Dyrk1A, Dyrk2 and CK2α in-house or gifts

[9] = biological target: T8, STK23 (MSSK1) (Homo sapiens, UniProt Q9UPE1); assay: Selectivity panel STK23; assay type: biochemical; conditions: 5 µM inhibitor
T8 construct: purchased Life Technologies (Invitrogen SelectScreen); Dyrk1A, Dyrk2 and CK2α in-house or gifts

[10] = biological target: T9, MAP2K1 (MEK1) (Homo sapiens, UniProt Q02750); assay: Selectivity panel MAP2K1; assay type: biochemical; conditions: 5 µM inhibitor
T9 construct: purchased Life Technologies (Invitrogen SelectScreen); Dyrk1A, Dyrk2 and CK2α in-house or gifts

[11] = biological target: T10, MAP2K6 (MKK6) (Homo sapiens, UniProt P52564); assay: Selectivity panel MAP2K6; assay type: biochemical; conditions: 5 µM inhibitor
T10 construct: purchased Life Technologies (Invitrogen SelectScreen); Dyrk1A, Dyrk2 and CK2α in-house or gifts

[12] = biological target: T11, MAP4K2 (GCK) (Homo sapiens, UniProt Q12851); assay: Selectivity panel MAP4K2; assay type: biochemical; conditions: 5 µM inhibitor
T11 construct: purchased Life Technologies (Invitrogen SelectScreen); Dyrk1A, Dyrk2 and CK2α in-house or gifts

[13] = biological target: T12, RPS6KB1 (p70S6K) (Homo sapiens, UniProt P23443); assay: Selectivity panel RPS6KB1; assay type: biochemical; conditions: 5 µM inhibitor
T12 construct: purchased Life Technologies (Invitrogen SelectScreen); Dyrk1A, Dyrk2 and CK2α in-house or gifts

[14] = biological target: T13, PDK1 (Homo sapiens, UniProt O15530); assay: Selectivity panel PDK1; assay type: biochemical; conditions: 5 µM inhibitor
T13 construct: purchased Life Technologies (Invitrogen SelectScreen); Dyrk1A, Dyrk2 and CK2α in-house or gifts

[15] = biological target: PIM1 (Homo sapiens, UniProt P11309); assay: Selectivity panel PIM1; assay type: biochemical; conditions: for inhibition at 5 µM: 5 µM inhibitor
PIM1, sequence (P11309 whole entry): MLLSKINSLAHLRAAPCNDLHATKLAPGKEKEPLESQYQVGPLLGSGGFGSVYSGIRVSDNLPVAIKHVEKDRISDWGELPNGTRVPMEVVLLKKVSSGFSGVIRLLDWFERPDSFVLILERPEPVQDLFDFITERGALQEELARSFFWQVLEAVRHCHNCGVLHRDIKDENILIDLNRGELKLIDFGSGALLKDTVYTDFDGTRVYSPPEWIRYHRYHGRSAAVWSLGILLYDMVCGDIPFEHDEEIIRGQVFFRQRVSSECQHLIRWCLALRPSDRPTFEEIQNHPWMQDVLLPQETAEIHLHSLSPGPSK

[16] = biological target: T14, PIM2 (Homo sapiens, UniProt Q9P1W9); assay: Selectivity panel PIM2; assay type: biochemical; conditions: 5 µM inhibitor
T14 construct: purchased Life Technologies (Invitrogen SelectScreen); Dyrk1A, Dyrk2 and CK2α in-house or gifts
T14 sequence (Q9P1W9 whole entry): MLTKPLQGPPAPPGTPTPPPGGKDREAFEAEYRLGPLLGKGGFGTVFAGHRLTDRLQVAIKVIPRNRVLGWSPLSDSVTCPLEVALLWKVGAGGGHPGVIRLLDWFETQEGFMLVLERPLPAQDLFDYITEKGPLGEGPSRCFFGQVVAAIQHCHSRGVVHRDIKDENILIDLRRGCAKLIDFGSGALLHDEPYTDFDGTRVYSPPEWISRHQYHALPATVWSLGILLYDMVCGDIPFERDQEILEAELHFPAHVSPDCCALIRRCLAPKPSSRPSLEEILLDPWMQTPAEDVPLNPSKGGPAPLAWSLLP

[17] = biological target: T15, BRSK1 (SAD1) (Homo sapiens, UniProt Q8TDC3); assay: Selectivity panel BRSK1; assay type: biochemical; conditions: 5 µM inhibitor
T15 construct: purchased Life Technologies (Invitrogen SelectScreen); Dyrk1A, Dyrk2 and CK2α in-house or gifts

[18] = biological target: T16, MKNK1 (MNK1) (Homo sapiens, UniProt Q9BUB5); assay: Selectivity panel MKNK1; assay type: biochemical; conditions: 5 µM inhibitor
T16 construct: purchased Life Technologies (Invitrogen SelectScreen); Dyrk1A, Dyrk2 and CK2α in-house or gifts

[19] = biological target: T17, MYLK2 (skMLCK) (Homo sapiens, UniProt Q9H1R3); assay: Selectivity panel MYLK2; assay type: biochemical; conditions: 5 µM inhibitor
T17 construct: purchased Life Technologies (Invitrogen SelectScreen); Dyrk1A, Dyrk2 and CK2α in-house or gifts

[20] = biological target: T18, PLK2/SNK (Homo sapiens, UniProt Q9NYY3); assay: Selectivity panel PLK2/SNK; assay type: biochemical; conditions: 5 µM inhibitor
T18 construct: purchased Life Technologies (Invitrogen SelectScreen); Dyrk1A, Dyrk2 and CK2α in-house or gifts
T18 sequence (Q9NYY3 whole entry): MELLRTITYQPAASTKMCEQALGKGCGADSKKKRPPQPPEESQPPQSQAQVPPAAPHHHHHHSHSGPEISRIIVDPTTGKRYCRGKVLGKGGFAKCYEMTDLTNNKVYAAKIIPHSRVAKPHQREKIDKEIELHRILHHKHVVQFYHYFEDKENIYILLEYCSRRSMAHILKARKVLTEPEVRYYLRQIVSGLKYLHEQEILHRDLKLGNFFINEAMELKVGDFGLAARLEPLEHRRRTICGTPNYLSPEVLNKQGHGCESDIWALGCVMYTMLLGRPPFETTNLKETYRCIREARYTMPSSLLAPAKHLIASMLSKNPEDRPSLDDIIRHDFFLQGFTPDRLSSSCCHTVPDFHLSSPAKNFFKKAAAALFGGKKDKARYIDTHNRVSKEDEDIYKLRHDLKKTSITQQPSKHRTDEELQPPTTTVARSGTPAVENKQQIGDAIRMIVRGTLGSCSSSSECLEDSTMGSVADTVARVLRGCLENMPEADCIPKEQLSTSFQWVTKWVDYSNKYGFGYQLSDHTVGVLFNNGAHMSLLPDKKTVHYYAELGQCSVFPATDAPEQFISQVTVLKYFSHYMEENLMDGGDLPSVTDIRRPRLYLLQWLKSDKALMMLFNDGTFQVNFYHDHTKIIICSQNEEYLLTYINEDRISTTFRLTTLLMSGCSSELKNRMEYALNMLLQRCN

[21] = biological target: T19, ZAK (Homo sapiens, UniProt Q9NYL2); assay: Selectivity panel ZAK; assay type: biochemical; conditions: 5 µM inhibitor
T19 construct: purchased Life Technologies (Invitrogen SelectScreen); Dyrk1A, Dyrk2 and CK2α in-house or gifts

[22] = biological target: T20, EGFR (Homo sapiens, UniProt P00533); assay: Selectivity panel EGFR; assay type: biochemical; conditions: 5 µM inhibitor
T20 construct: purchased Life Technologies (Invitrogen SelectScreen); Dyrk1A, Dyrk2 and CK2α in-house or gifts
T20 sequence (P00533 25-1210): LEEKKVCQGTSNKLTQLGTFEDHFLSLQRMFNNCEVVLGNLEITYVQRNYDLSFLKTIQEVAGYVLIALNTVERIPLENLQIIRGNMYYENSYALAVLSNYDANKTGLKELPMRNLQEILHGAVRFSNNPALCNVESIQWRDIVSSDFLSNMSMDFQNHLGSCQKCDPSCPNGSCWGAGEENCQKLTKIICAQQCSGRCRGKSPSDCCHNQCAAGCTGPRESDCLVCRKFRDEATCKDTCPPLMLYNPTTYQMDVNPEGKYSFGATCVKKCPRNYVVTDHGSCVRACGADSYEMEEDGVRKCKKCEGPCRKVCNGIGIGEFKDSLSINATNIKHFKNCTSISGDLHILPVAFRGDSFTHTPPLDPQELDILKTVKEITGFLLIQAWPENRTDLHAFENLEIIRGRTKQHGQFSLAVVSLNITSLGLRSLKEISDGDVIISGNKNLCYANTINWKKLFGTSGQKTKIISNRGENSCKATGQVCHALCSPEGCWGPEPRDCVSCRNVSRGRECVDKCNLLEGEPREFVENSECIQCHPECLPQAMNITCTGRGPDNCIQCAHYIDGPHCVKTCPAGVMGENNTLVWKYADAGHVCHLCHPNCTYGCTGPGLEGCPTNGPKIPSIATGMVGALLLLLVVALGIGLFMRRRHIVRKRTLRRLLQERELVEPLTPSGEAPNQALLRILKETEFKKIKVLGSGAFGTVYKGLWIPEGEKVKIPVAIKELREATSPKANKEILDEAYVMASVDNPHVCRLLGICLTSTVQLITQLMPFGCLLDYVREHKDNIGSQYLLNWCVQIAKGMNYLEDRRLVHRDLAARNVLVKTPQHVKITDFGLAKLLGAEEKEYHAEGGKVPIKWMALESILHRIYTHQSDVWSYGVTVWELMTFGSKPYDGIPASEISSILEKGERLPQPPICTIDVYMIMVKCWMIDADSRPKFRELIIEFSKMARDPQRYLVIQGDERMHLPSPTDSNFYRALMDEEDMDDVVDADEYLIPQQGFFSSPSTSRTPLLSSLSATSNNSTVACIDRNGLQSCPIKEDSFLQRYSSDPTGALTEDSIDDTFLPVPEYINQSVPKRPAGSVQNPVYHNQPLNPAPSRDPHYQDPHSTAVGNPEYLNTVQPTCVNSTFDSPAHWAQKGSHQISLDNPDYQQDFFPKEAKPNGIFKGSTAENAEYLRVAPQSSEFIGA

[23] = biological target: T21, LYN A (Homo sapiens, UniProt P07948); assay: Selectivity panel LYN A; assay type: biochemical; conditions: 5 µM inhibitor
T21 construct: purchased Life Technologies (Invitrogen SelectScreen); Dyrk1A, Dyrk2 and CK2α in-house or gifts

[24] = biological target: T22, TrkB (Homo sapiens, UniProt Q16620); assay: Selectivity panel TrkB; assay type: biochemical; conditions: 5 µM inhibitor
T22 construct: purchased Life Technologies (Invitrogen SelectScreen); Dyrk1A, Dyrk2 and CK2α in-house or gifts
T22 sequence (Q16620 32-822): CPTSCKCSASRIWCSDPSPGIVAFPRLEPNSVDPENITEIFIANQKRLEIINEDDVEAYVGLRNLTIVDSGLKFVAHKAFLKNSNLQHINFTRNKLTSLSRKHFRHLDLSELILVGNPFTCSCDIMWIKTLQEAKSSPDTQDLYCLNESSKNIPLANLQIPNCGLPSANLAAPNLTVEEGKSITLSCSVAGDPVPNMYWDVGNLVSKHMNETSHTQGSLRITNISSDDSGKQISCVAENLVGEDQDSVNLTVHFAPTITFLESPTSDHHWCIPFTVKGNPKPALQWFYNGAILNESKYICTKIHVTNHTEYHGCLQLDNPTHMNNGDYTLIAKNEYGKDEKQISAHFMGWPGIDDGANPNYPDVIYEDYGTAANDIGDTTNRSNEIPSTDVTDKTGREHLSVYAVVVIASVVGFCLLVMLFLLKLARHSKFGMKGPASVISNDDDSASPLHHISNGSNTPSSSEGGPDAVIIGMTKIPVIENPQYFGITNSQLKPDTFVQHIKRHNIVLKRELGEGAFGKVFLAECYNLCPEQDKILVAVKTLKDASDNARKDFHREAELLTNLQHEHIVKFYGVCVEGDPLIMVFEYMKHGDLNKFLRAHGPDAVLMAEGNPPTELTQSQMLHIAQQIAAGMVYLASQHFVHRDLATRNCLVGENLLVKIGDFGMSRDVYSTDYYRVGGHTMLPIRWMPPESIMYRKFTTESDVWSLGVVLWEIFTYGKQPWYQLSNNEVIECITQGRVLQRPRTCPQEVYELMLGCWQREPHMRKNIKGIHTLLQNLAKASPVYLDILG

[25] = biological target: T23, ABL1 (Homo sapiens, UniProt P00519); assay: Selectivity panel ABL1; assay type: biochemical; conditions: 5 µM inhibitor
T23 construct: purchased Life Technologies (Invitrogen SelectScreen); Dyrk1A, Dyrk2 and CK2α in-house or gifts

[26] = biological target: T24, BTK (Homo sapiens, UniProt Q06187); assay: Selectivity panel BTK; assay type: biochemical; conditions: 5 µM inhibitor
T24 construct: purchased Life Technologies (Invitrogen SelectScreen); Dyrk1A, Dyrk2 and CK2α in-house or gifts

[27] = biological target: T25, FGFR3 (Homo sapiens, UniProt P22607); assay: Selectivity panel FGFR3; assay type: biochemical; conditions: 5 µM inhibitor
T25 construct: purchased Life Technologies (Invitrogen SelectScreen); Dyrk1A, Dyrk2 and CK2α in-house or gifts

[28] = biological target: T26, ZAP70 (Homo sapiens, UniProt P43403); assay: Selectivity panel ZAP70; assay type: biochemical; conditions: 5 µM inhibitor
T26 construct: purchased Life Technologies (Invitrogen SelectScreen); Dyrk1A, Dyrk2 and CK2α in-house or gifts

[29] = biological target: T27, SRC (Homo sapiens, UniProt P12931); assay: Selectivity panel SRC; assay type: biochemical; conditions: 5 µM inhibitor
T27 construct: purchased Life Technologies (Invitrogen SelectScreen); Dyrk1A, Dyrk2 and CK2α in-house or gifts

[30] = biological target: T28, PTK6 (Brk) (Homo sapiens, UniProt Q13882); assay: Selectivity panel PTK6; assay type: biochemical; conditions: 5 µM inhibitor
T28 construct: purchased Life Technologies (Invitrogen SelectScreen); Dyrk1A, Dyrk2 and CK2α in-house or gifts

[31] = biological target: T29, Dyrk1B (Homo sapiens, UniProt Q9Y463); assay: Dyrk1B kinase assay (32P-ATP, Woodtide); assay type: biochemical; conditions: for IC50: 100 µM ATP; for inhibition at 5 µM: read-out: percentage of inhibition Dyrk1B; for Kd: calculated with Cheng-Prussoff equation, KM ATP 59 µM
T29 construct: purchased Life Technologies PV4649 (LOT # 877059G)
T29 sequence (Q9Y463 whole entry): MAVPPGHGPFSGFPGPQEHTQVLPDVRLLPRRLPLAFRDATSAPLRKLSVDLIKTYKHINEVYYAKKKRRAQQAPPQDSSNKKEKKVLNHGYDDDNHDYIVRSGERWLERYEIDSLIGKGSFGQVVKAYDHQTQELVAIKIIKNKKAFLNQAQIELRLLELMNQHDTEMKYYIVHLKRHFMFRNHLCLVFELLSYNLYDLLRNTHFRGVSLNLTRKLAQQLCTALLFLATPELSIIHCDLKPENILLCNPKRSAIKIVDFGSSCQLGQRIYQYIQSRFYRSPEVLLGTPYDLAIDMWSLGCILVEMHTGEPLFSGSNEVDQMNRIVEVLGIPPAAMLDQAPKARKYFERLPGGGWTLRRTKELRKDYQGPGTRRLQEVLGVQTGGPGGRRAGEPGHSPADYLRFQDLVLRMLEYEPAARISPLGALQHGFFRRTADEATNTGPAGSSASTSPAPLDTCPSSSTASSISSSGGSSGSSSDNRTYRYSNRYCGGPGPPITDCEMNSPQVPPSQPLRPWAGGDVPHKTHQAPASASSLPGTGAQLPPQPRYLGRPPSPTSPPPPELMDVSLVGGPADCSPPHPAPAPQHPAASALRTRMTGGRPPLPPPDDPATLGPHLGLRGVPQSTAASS

Row | SMILES | inhibition at 5 µM [1] | inhibition at 5 µM [6] | inhibition at 5 µM [15] | inhibition at 5 µM [22] | inhibition at 5 µM [24] | IC50 [31] | inhibition at 5 µM [31] | IC50 [15] | caspase-3/7 activity [2] | inhibition at 5 µM [3] | inhibition at 5 µM [4] | inhibition at 5 µM [5] | inhibition at 5 µM [7] | inhibition at 5 µM [8] | inhibition at 5 µM [9] | inhibition at 5 µM [10] | inhibition at 5 µM [11] | inhibition at 5 µM [12] | inhibition at 5 µM [13] | inhibition at 5 µM [14] | further results
1 | c1cncc(-c2cc(-c3cncs3)cs2)c1 [Compound 29, 3-[4-(1,3-thiazol-5-yl)thiophen-2-yl]pyridine] | 0% | 39% | 22% | 0% | 24% | – | – | – | clear increase | 72% | 105% | 7% | 29% | 4% | 2% | 1% | 5% | 32% | -2% | -10% | concentration at which induction of caspase-3/7 was already observed ([2]; U2OS cells, not statistically significant at this concentration): 0.5 µM; inhibition at 5 µM [16]: 7%; inhibition at 5 µM [17]: 11%; inhibition at 5 µM [18]: 83%; inhibition at 5 µM [19]: 12%; inhibition at 5 µM [20]: -3%; inhibition at 5 µM [21]: 11%; inhibition at 5 µM [23]: 16%; inhibition at 5 µM [25]: 2%; inhibition at 5 µM [26]: 17%; inhibition at 5 µM [27]: -2%; inhibition at 5 µM [28]: 4%; inhibition at 5 µM [29]: -8%; inhibition at 5 µM [30]: 30%
2 | c1cncc(-c2csc(-c3cncs3)c2)c1 [Compound 48, 3-[5-(1,3-thiazol-5-yl)thiophen-3-yl]pyridine] | 0% | 44% | 51% | 15% | 0% | 0.07 µM | 100% | ~5 µM | clear increase | 78% | 99% | 7% | 42% | 2% | 0% | 2% | 7% | 6% | -4% | 7% | Kd [31]: 0.026 µM; inhibition at 5 µM [16]: 5%; inhibition at 5 µM [17]: -4%; inhibition at 5 µM [18]: 47%; inhibition at 5 µM [19]: 31%; inhibition at 5 µM [20]: 1%; inhibition at 5 µM [21]: 11%; inhibition at 5 µM [23]: 13%; inhibition at 5 µM [25]: 6%; inhibition at 5 µM [26]: 15%; inhibition at 5 µM [27]: -1%; inhibition at 5 µM [28]: -1%; inhibition at 5 µM [29]: -4%; inhibition at 5 µM [30]: 34%
3 | Cn1cc(-c2csc(-c3cccnc3)c2)cn1 [Compound 30, 3-[4-(1-methyl-1H-pyrazol-4-yl)thiophen-2-yl]pyridine] | 9.5% | 33% | 52% | 5% | -5% | 0.4 µM and 0.41 µM | 100% | ~5 µM | – | – | – | – | – | – | – | – | – | – | – | – | Kd [31]: 0.148 µM; percentage of inhibition CK2α ([1]; at 5 µM): 10%

Second part, led by results:

Row | inhibition at 5 µM [1] | inhibition at 5 µM [6] | inhibition at 5 µM [15] | inhibition at 5 µM [22] | inhibition at 5 µM [24] | IC50 [31] | inhibition at 5 µM [31] | IC50 [15] | SMILES | caspase-3/7 activity [2] | inhibition at 5 µM [3] | inhibition at 5 µM [4] | inhibition at 5 µM [5] | inhibition at 5 µM [7] | inhibition at 5 µM [8] | inhibition at 5 µM [9] | inhibition at 5 µM [10] | inhibition at 5 µM [11] | inhibition at 5 µM [12] | inhibition at 5 µM [13] | inhibition at 5 µM [14] | further results
4 | 0% | 23% | 51% | 0% | 23% | 1 µM | 83% | ~5 µM | c1cncc(-c2csc(-c3cnco3)c2)c1 [Compound 33, 3-[5-(1,3-oxazol-5-yl)thiophen-3-yl]pyridine] | – | – | – | – | – | – | – | – | – | – | – | – | –
5 | 0% | 14% | 14% | 4% | 22% | 1.8 µM | 70% | – | c1cncc(-c2csc(-c3cncnc3)c2)c1 [Compound 41, 5-[4-(pyridin-3-yl)thiophen-2-yl]pyrimidine] | – | – | – | – | – | – | – | – | – | – | – | – | –
